According to patent US7915276B2, “Berberrubine derivatives having antifungal activities” (priority 2006, dated 2011):

Tests used:
[1] = target: T1, chitin synthase 1 of Candida albicans chs2 Δ chs 3 Δ (Candida albicans, UniProt P23316); test: In vitro enzyme assay for chitin synthase 1 of Candida albicans (enzyme 1); assay type: biochemical; settings: relative to polyoxin D (50% inhibitory activity = value 5)
T1 construct: Crude enzyme was prepared using the Candida albicans chs2 Δ chs 3 Δ mutant; endogenous in cells; host or cells: Candida albicans chs2Δ/chs2Δ chs3Δ/chs3Δ mutant; 130,000 x g membrane pellet
T1 sequence (P23316 whole entry, stated change not applied): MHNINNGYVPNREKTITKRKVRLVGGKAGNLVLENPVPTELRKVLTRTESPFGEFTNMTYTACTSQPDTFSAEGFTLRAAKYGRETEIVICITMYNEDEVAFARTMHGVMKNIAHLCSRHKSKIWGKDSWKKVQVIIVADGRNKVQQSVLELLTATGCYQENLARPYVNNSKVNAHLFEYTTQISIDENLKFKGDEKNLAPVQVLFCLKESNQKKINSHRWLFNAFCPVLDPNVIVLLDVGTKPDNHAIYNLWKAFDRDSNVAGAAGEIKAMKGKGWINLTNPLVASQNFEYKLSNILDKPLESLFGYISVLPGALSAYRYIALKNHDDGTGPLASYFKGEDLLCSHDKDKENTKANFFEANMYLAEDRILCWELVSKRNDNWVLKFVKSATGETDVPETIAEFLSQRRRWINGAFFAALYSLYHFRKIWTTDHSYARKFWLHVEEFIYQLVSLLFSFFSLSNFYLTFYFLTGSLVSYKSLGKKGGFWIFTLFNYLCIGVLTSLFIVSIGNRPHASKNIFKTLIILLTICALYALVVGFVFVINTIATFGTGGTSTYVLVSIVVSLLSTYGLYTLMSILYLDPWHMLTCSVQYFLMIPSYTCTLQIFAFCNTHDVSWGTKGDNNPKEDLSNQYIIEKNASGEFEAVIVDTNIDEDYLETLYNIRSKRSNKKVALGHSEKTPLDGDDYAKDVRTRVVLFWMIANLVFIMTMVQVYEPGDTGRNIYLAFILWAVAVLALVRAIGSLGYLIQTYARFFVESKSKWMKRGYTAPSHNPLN
Summary of the method: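 Trypsin-activated crude membrane chitin synthase 1 from C. albicans chs2Δ chs3Δ was incubated 90 min at 30 °C with 1.1 mM UDP-[14C]GlcNAc and 2 mM cobalt acetate in Tris-HCl pH 7.5. Filtered TCA precipitate was counted by scintillation; values are scores 1–8 against polyoxin D (5 = same concentration).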

[2] = target: T2, chitin synthase 2 of Saccharomyces cerevisiae ECY38-38A(pAS6) (Saccharomyces cerevisiae, UniProt P14180); test: In vitro enzyme assay for chitin synthase 2 of Saccharomyces cerevisiae (enzyme 2); assay type: biochemical; settings: relative to polyoxin D (50% inhibitory activity = value 5)
T2 construct: made in house; host or cells: Saccharomyces cerevisiae ECY38-38A (chs1-23 chs2::LEU2 cal1/csd2) carrying plasmid pAS6, grown in galactose medium; 130,000 x g membrane pellet
T2 sequence (P14180 whole entry): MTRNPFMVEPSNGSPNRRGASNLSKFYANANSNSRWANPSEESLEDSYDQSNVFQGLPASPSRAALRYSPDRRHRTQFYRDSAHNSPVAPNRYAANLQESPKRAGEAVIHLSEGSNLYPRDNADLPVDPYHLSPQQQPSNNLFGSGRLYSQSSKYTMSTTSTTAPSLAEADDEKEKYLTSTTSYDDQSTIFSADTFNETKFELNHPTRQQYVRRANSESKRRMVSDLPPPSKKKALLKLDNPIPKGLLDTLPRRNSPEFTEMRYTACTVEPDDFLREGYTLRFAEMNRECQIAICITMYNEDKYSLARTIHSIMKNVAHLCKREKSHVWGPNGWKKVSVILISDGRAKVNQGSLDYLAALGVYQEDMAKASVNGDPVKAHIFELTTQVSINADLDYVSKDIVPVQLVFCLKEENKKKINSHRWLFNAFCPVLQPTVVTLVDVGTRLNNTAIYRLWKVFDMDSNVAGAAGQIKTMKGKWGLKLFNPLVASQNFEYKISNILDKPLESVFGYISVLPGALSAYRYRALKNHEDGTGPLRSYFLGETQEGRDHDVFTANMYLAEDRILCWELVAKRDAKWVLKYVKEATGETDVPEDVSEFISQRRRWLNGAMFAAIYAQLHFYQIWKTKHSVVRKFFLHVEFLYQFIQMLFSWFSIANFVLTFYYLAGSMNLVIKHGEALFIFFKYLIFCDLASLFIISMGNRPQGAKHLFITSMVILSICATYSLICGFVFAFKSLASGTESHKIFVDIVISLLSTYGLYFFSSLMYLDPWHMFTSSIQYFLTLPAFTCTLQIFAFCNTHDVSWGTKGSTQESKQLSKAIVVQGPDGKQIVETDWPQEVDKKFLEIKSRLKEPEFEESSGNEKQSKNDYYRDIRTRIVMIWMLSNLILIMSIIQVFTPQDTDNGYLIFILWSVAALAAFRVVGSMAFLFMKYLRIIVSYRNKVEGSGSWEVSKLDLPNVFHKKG
Summary of the method: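 Values are scores: 5 means 50% inhibition at the same concentration as polyoxin D, lower scores 2- to 16-fold higher concentration, higher scores ½ to ⅛. Radiolabel from 1.1 mM UDP-[14C]-GlcNAc was incorporated into TCA-insoluble chitin over 90 min at 30 °C (pH 7.5 Tris, 2 mM Co2+). The enzyme was a trypsin-activated membrane fraction from CHS2-only S. cerevisiae ECY38-38A(pAS6).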

[3] = system: Aspergillus flavus ATCC 64025; test: In vitro antifungal activity (MIC), NCCLS method; assay type: cell-based; settings: 48 hours
Source text: (§1) Candida albicans ATCC 10231, Candida lusitaniae ATCC 42720, Candida krusei ATCC 6258, Candida tropicalis ATCC 13803, Candida glabrata ATCC 48435, Candida parapsilosis ATCC 34136, Cryptococcus neoformans ATCC 36556, Aspergillus fumigatus ATCC 16424, Aspergillus flavus ATCC 64025, Aspergillus terreus ATCC 46941 and Mucor ramosissimus ATCC 90286 strains for the MIC (minimum inhibitory concentration) measurement were obtained from ATCC (American Type Culture Collection) in the U.S. The Candida albicans A207(clinical isolate) strain was used by isolating it from the patients.
(§2) The determination of MIC was performed according to the NCCLS (National Committee for Clinical Laboratory Standard) method. Each test sample solution was diluted two-fold and inoculated with a fungal suspension to reach a final inoculum size of 5×10^2 to 2.5×10^3 cell/mL. The Cryptococcus neoformans strain was cultured in the RPMI 1640 medium for 72 hours. Other strains were cultured for 48 hours.

[4] = system: Aspergillus fumigatus ATCC 16424; test: In vitro antifungal activity (MIC), NCCLS method; assay type: cell-based; settings: 48 hours
Source text: as §1, §2

[5] = system: Aspergillus terreus ATCC 46941; test: In vitro antifungal activity (MIC), NCCLS method; assay type: cell-based; settings: 48 hours
Source text: as §1, §2

[6] = system: Candida albicans A207 (clinical isolate); test: In vitro antifungal activity (MIC), NCCLS method; assay type: cell-based; settings: 48 hours
Source text: as §1, §2

[7] = system: Candida albicans ATCC 10231; test: In vitro antifungal activity (MIC), NCCLS method; assay type: cell-based; settings: 48 hours
Source text: as §1, §2

[8] = system: Candida glabrata ATCC 48435; test: In vitro antifungal activity (MIC), NCCLS method; assay type: cell-based; settings: Candida glabrata ATCC 48435; 48 hours
Source text: as §1, §2

Candida krusei ATCC 6258 = test: In vitro antifungal activity (MIC), NCCLS method; assay type: cell-based; settings: 48 hours
Source text: as §1, §2

[9] = system: Candida lusitaniae ATCC 42720; test: In vitro antifungal activity (MIC), NCCLS method; assay type: cell-based; settings: 48 hours
Source text: as §1, §2

[10] = system: Candida parapsilosis ATCC 34136; test: In vitro antifungal activity (MIC), NCCLS method; assay type: cell-based; settings: Candida parapsilosis ATCC 34136; 48 hours
Source text: as §1, §2

[11] = system: Candida tropicalis ATCC 13803; test: In vitro antifungal activity (MIC), NCCLS method; assay type: cell-based; settings: 48 hours
Source text: as §1, §2

[12] = system: Cryptococcus neoformans ATCC 36556; test: In vitro antifungal activity (MIC), NCCLS method; assay type: cell-based; settings: RPMI 1640 medium, 72 hours
Source text: as §1, §2

[13] = system: Mucor ramosissimus ATCC 90286; test: In vitro antifungal activity (MIC), NCCLS method; assay type: cell-based; settings: 48 hours
Source text: as §1, §2

Molecule | Relative activity Enzyme 1 [1] | Relative activity Enzyme 2 [2] | MIC (minimum inhibitory concentration) [3] [mg/L] | MIC (minimum inhibitory concentration) [4] [mg/L] | MIC (minimum inhibitory concentration) [5] [mg/L] | MIC (minimum inhibitory concentration) [6] [mg/L] | MIC (minimum inhibitory concentration) [7] [mg/L] | MIC (minimum inhibitory concentration) [8] [mg/L] | MIC (minimum inhibitory concentration) (Candida krusei ATCC 6258) [mg/L] | MIC (minimum inhibitory concentration) [9] [mg/L] | MIC (minimum inhibitory concentration) [10] [mg/L] | MIC (minimum inhibitory concentration) [11] [mg/L] | MIC (minimum inhibitory concentration) [12] [mg/L] | MIC (minimum inhibitory concentration) [13] [mg/L]
13-(4-Isopropylbenzyl)-9-O-(4-tert-butylbenzyl)berberrubine bromide [Compound No. 25] | 2 (Compounds having the inhibitory activity at 2-fold, 4-fold, 8-fold and 16-fold higher concentrations than that of polyoxin D were given the values of 4, 3, 2 and 1, respectively) | 5 (A compound having the same inhibitory activity as that of polyoxin D at the same concentration was given the value 5) | 8 | 4 | 8 | 1 | 1 | 4 | 4 | 4 | 8 | 1 | 2 | 8
COc1ccc2c(Cc3ccc(C(C)C)cc3)c3[n+](cc2c1OCCCCCCCl)CCc1cc2c(cc1-3)OCO2.[I-] [Compound No. 22, 13-(4-Isopropylbenzyl)-9-O-(6-chlorohexyl)berberrubine iodide] | 2 (Compounds having the inhibitory activity at 2-fold, 4-fold, 8-fold and 16-fold higher concentrations than that of polyoxin D were given the values of 4, 3, 2 and 1, respectively) | 5 (A compound having the same inhibitory activity as that of polyoxin D at the same concentration was given the value 5) | 8 | 2 | 8 | 0.5 | 0.5 | 2 | 1 | 2 | 2 | 0.5 | 1 | 4
13-(4-tert-Butylbenzyl)-9-O-(3-hydroxypropyl)berberrubine chloride [Compound No. 43] | 4 (Compounds having the inhibitory activity at 2-fold, 4-fold, 8-fold and 16-fold higher concentrations than that of polyoxin D were given the values of 4, 3, 2 and 1, respectively) | 7 (compounds having the inhibitory activity at ½, ¼ and ⅛ lower concentrations than that of polyoxin D were given the values of 6, 7 and 8, respectively) | 8 | 2 | 8 | 0.5 | 0.5 | 2 | 1 | 2 | 2 | 0.5 | 1 | 4
13-(4-Isopropylbenzyl)-9-O-(4-isopropylbenzyl)berberrubine bromide [Compound No. 26] | 2 (Compounds having the inhibitory activity at 2-fold, 4-fold, 8-fold and 16-fold higher concentrations than that of polyoxin D were given the values of 4, 3, 2 and 1, respectively) | 5 (A compound having the same inhibitory activity as that of polyoxin D at the same concentration was given the value 5) | 8 | 4 | 8 | 1 | 1 | 2 | 2 | 4 | 8 | 1 | 2 | 8
13-(4-tert-Butylbenzyl)-9-O-crotylberberrubine chloride [Compound No. 46] | 2 (Compounds having the inhibitory activity at 2-fold, 4-fold, 8-fold and 16-fold higher concentrations than that of polyoxin D were given the values of 4, 3, 2 and 1, respectively) | 6 (compounds having the inhibitory activity at ½, ¼ and ⅛ lower concentrations than that of polyoxin D were given the values of 6, 7 and 8, respectively) | 8 | 2 | 4 | 0.5 | 0.5 | 4 | 1 | 1 | 4 | 0.5 | 1 | 4
13-(4-Isopropylbenzyl)-9-O-(6-chlorohexyl)berberrubine chloride [Compound No. 54] | 2 (Compounds having the inhibitory activity at 2-fold, 4-fold, 8-fold and 16-fold higher concentrations than that of polyoxin D were given the values of 4, 3, 2 and 1, respectively) | 6 (compounds having the inhibitory activity at ½, ¼ and ⅛ lower concentrations than that of polyoxin D were given the values of 6, 7 and 8, respectively) | 8 | 2 | 8 | 0.5 | 0.5 | 2 | 1 | 2 | 2 | 0.5 | 1 | 4
13-(4-Isopropylbenzyl)-9-O-hexylberberrubine iodide [Compound No. 19] | 4 (Compounds having the inhibitory activity at 2-fold, 4-fold, 8-fold and 16-fold higher concentrations than that of polyoxin D were given the values of 4, 3, 2 and 1, respectively) | 6 (compounds having the inhibitory activity at ½, ¼ and ⅛ lower concentrations than that of polyoxin D were given the values of 6, 7 and 8, respectively) | 8 | 2 | 8 | 0.25 | 0.25 | 2 | 1 | 1 | 2 | 0.125 | 1 | 4
